≈ marks a conversion by molar mass, not a printed value. Read-outs that look alike come from different tables or passages of the source.
What was measured:
[1] = rat model; cited from earlier work
MCF-7/Adr = test: Sequential/simultaneous treatment, cell viability by MTS assay; type: cell-based, human; conditions: for IC50: Homo sapiens, NCI/ADR-RES
Experimental: (§1) The efficacy of sequential treatment was tested in the following human breast cancer cell lines: MCF-7/Adr (drug resistant), MCF-7, MDAMB 231 and BT-459. Cells were seeded at 3000 cells per well/0.1 mL in 96-well plates (Microtest Becton Dickinson Labware, Franklin Lakes, N.J.). 24 h post seeding, cells were pretreated with DAC solution/nanogel for 24 h or 48 h and washed with 1×-DPBS. 0.1 mL of media containing dox solution or nanogel was added and incubated in CO2 incubator for 48 h. Cell viability was determined at the end of incubation period using a standard MTS assay (CellTiter 96 Aqueous, Promega, Madison, Wis.). To each well was added 20 μL of reagent, the plates were incubated for 2 h at 37° C. in cell culture incubator, and color intensity was measured at 490 nm using a micro plate reader (Bio-Tek Instrument, Winooski, Vt.). The effect of drug on cell proliferation was calculated as percentage growth of cells with respect to their respective controls. For simultaneous treatment DAC solution or nanogel, and dox solution or nanogel were added together to cells, and the above mentioned protocol was followed.
(§2) The interaction between DAC and dox was analyzed using the Calcusyn software program (Biosoft, Ferguson, Mo.) to determine whether the simultaneous/sequential treatment was additive or synergistic.
Data from cell viability assay (MTS) was expressed as the fraction of cells killed by individual drugs or by their combination in drug-treated compared with untreated cells. This program is based upon Chou-Talalay method. It calculates combination index (CI) of drugs. From the CI values, synergistic action of drugs can be analysed. The CI equal to 1, indicates the additive effect and CI<1 and CI>1, indicates synergistic and antagonistic activity respectively.

BT 459 = test: Sequential treatment, cell viability by MTS assay; type: cell-based; conditions: Homo sapiens, dox alone, read-out: IC50 (Dox ng/mL)
Experimental: as §1, with “For simultaneous treatment DAC solution or nanogel, and dox solution or nanogel were added together to cells, and the above mentioned protocol was followed.” left out
as §2
Data from cell viability assay (MTS) was expressed as the fraction of cells killed by individual drugs or by their combination in drug-treated compared with untreated cells. […]

dox sensitive cell lines = test: Dox cell viability by MTS assay, sensitive cell lines; type: cell-based; conditions: Homo sapiens; range over sensitive cell lines
Experimental: Cells were seeded at 3000 cells per well/0.1 mL in 96-well plates (Microtest Becton Dickinson Labware, Franklin Lakes, N.J.). […] Cell viability was determined at the end of incubation period using a standard MTS assay (CellTiter 96 Aqueous, Promega, Madison, Wis.). To each well was added 20 μL of reagent, the plates were incubated for 2 h at 37° C. in cell culture incubator, and color intensity was measured at 490 nm using a micro plate reader (Bio-Tek Instrument, Winooski, Vt.). The effect of drug on cell proliferation was calculated as percentage growth of cells with respect to their respective controls. For simultaneous treatment DAC solution or nanogel, and dox solution or nanogel were added together to cells, and the above mentioned protocol was followed.

MCF-7 cells = test: Cell cycle analysis by flow cytometry; type: cell-based, human; conditions: DAC 50 ng/mL, dox 1 ng/mL, 48 h and 72 h, vs DAC alone or untreated
Experimental: (§3) Subconfluent cells were left untreated or treated with DAC (50 and 100 ng/mL) and dox (1 ng/mL) alone or in combination (sequential treatment) for 4-96 h. Cells were then trypsinized and then centrifuged at 1,300 rpm for 3 min at 4° C. Cell pellet was washed twice with ice cold 1X DPBS (pH 7.4) and resuspended in propidium iodide-(PI) solution (12.5 mg PI, 250 mg Sodium-Citrate and 250 μL Triton X-100 in 250 mL of water). Cells were then incubated in ice bucket, kept in cold room for 2 h, and DNA content was determined by flow cytometry using a FACScan flow cytometer (Becton Dickinson, San Jose, Calif.).

MCF-7/Adr cells [2] = test: Cell cycle analysis by flow cytometry; type: cell-based, human; conditions: DAC 50 ng/mL, dox 1 ng/mL, 48 h and 72 h, vs DAC alone or untreated
Experimental: as §3

MCF-7/Adr cells [3] = test: Cellular uptake of dox; type: cell-based, human; conditions: dox alone treated MCF-7/Adr cells
Experimental: Drug resistant breast cancer cells were seeded in 24 well plates (1.2×10^6 cells/well). Post 48 h seeding, cells were pre-treated with DAC (50 ng/mL; 24 h); and then incubated with fixed concentration of dox (1 μg/mL) for indicated time points. Post drug incubation cell lysates in RIPA buffer was collected and lyophilized. Dox was extracted from lyophilized cell lysates using methanol as the solvent and analyzed by HPLC.

Row | Compound | Carcinogenicity [1] | IC50 (MCF-7/Adr; dox alone, mean ± s.e.m., three experiments, read-out: IC50 (Dox ng/mL)) [ng/mL] | IC50 (MCF-7/Adr; pretreated with DAC 24 h, then dox 48 h, read-out: IC50 (Sequential - Deci + Dox ng/mL)) [ng/mL] | IC50 (Dox ng/mL) (MCF-7/Adr; dox alone, mean ± s.e.m., three experiments) [ng/mL] | IC50 (BT 459) [ng/mL] | IC50 (dox sensitive cell lines) [µg/mL] | G2/M arrest (MCF-7 cells) | G2/M arrest (MCF-7/Adr cells [2]) | Incubation time after which drug concentration reached plateau (MCF-7/Adr cells [3]) [h]
1 | Nc1ncn([C@@H]2O[C@H](CO)[C@@H](O)[C@H]2O)c(=O)n1 [5-azacytidine] | carcinogenic | – | – | – | – | – | – | – | –
2 | COc1cccc2c1C(=O)c1c(O)c3c(c(O)c1C2=O)C[C@@](O)(C(=O)CO)C[C@@H]3O[C@H]1C[C@H](N)[C@H](O)[C@H](C)O1 [Dox, doxorubicin] | – | 7380 | ≤ 1 | 7385.2 ± 698 | 102 ± 4.7 | 0.019 to 0.102 (≈ 0.035 to 0.188 µM) | no difference | no difference | 1

Source: patent publication US10729659B2, “Nanogel-mediated drug delivery” (The Cleveland Clinic Foundation, priority 2012, dated 2020)
